Marks after values point to notes of the source that are not given here.
Legend:
M. avium [1] = assay: Intracellular growth of M. avium in human monocyte-derived macrophages (hMDM) in vitro, CFU assay; type: cell-based, Mycobacterium avium; settings: for enhancement of the anti-mycobacterial effect of clarithromycin: compared to antibiotic alone
Method: (§1) A previously studied M. avium strain 13 (Hayashi, et al. (1999) Infect. Immun. 67:3558-3565; Meylan, et al. (1990) Infect. Immun. 58:2564-2568), isolated from an AIDS patient at UCSD, San Diego, Calif., was used in all experiments. The organism was cultured on Middlebrook 7H11 agar (Difco Laboratories, Detroit, Mich.) with OADC enrichment at 37° C. in the presence of 5% CO2 for two weeks. Transparent colonies were selectively picked and further cultured on Middlebrook 7H11 plates for two more weeks. The resulting colonies, which were predominantly transparent (>90%), were then collected and washed two times with phosphate-buffered saline (PBS). The bacteria were finally resuspended in Middlebrook 7H9 broth (Difco Laboratories) and the OD600 of the suspension was adjusted to 0.15-0.2. The suspension was aliquoted and stored at −70° C. until use. The number of organisms/ml of this suspension was determined by the colony forming unit (CFU) assay.
(§2) The number of CFU in a given sample was determined by colony counting as described previously (Ogata, et al. (1992) Infect. Immun. 60:4720-4725). Serial 10-fold dilutions of total cell lysates or tissue homogenates were performed in PBS. 10 μl of each dilution were plated on Middlebrook 7H11 plates supplemented with OADC enrichment. The plates were incubated up to 14 days at 37° C. The number of colonies was counted every alternate day from day 10 onwards until no new colonies appeared. This yielded the number of CFU/10 μl. The number of CFU in each well was then calculated.
Monocytes were isolated from normal human buffy coats obtained from the San Diego Blood Bank by Ficoll-Hypaque and Percoll gradient centrifugation (Hayashi, et al. (1997) Infect. Immun. 65:5262-5271). Purity of the monocytes by this method was greater than 70%. The monocytes thus isolated were cultured for five to seven days in Iscove's Modified Dulbecco's Medium (BioWhittaker, Walkersville, Md.) supplemented with 10% normal human serum (Irvine Scientific, Santa Ana, Calif.), 2 mM L-glutamine and 50 units/ml penicillin-streptomycin in Teflon beakers to yield human monocyte-derived macrophages (hMDM). These hMDM were further enriched by adherence to the wells of tissue culture plates before use in experiments. Purity of hMDM after the second adherence assessed by esterase staining was >95%. Viability determined by trypan blue exclusion was >97%.
hMDM (6×10^4) were, adhered to the wells of 96-well tissue culture plates for two hours and non-adherent cells were removed by washing with warm RPMI-1640. Adherent cells were treated with ISS at 3, 10, or 30 μg/ml for 72 h before infection with M. avium. Cells treated with M-ODN at 10 μg/ml or with media alone served as controls. After 72 h, the cells were washed two times and infected with M. avium in RPMI-1640 supplemented with 5% heat-inactivated fetal bovine serum (FBS, Irvine Scientific) at a cell:bacteria ratio of 1:5-1:10. On days 1, 3 and 7 after infection, the total number of colony forming units (CFU) in each well was determined. The supernatant was collected and set aside and the adherent cells were lysed. To account for all the mycobacteria in each well, corresponding lysates and supernatants were combined and used to determine the number of CFU. Experiments were done in triplicate and results were expressed as mean±SD of CFU per well.
Alternatively, 5×10^4 mBMDM or hMDM was treated with ISS for 3 days before infection. Macrophages treated with M-ODN or with media alone served as controls. After 3 days, the cells were infected for 2 hrs with M. avium at a macrophage:bacteria ratio of 2:1 for mBMDM or of 1:10 for hMDM, and subsequently cultured in fresh media without antibiotics. To examine attachment and/or invasion of M. avium, the macrophages were lysed immediately after washing, and the number of bacteria were enumerated by the CFU assay. Intracellular growth of M. avium was determined on days 1, 3, and 7 after infection. […]

M. avium [2] = assay: Intracellular growth of M. avium in mouse bone marrow-derived macrophages (mBMDM) in vitro, CFU assay; type: cell-based, Mycobacterium avium; settings: for % of CFU: 10 μg/ml 72 h prior to infection, medium alone = 100%
Method: as §1, §2
Preparation of Murine Macrophages. Mouse bone marrow-derived macrophages (mBMDM) were prepared from mouse bone marrow using L-cell conditioned media, as described in Martin-Orozco, et al. (1999) […] 11:1111-1118.
Alternatively, 5×10^4 mBMDM or hMDM was treated with ISS for 3 days before infection. Macrophages treated with M-ODN or with media alone served as controls. After 3 days, the cells were infected for 2 hrs with M. avium at a macrophage:bacteria ratio of 2:1 for mBMDM or of 1:10 for hMDM, and subsequently cultured in fresh media without antibiotics. To examine attachment and/or invasion of M. avium, the macrophages were lysed immediately after washing, and the number of bacteria were enumerated by the CFU assay. Intracellular growth of M. avium was determined on days 1, 3, and 7 after infection. To account for all the mycobacteria in each group, corresponding lysates were combined and then the number of CFU was determined. To examine the efficacy of anti-mycobacterial treatments, CFU recovered from cells treated with medium alone were considered as 100% growth.
To determine whether treatment with ISS after infection alters M. avium growth, adherent cells were first infected with M. avium for 2 hrs and then these cells were cultured with fresh media containing ISS. Infected cells treated with M-ODN or medium alone served as controls. At day 7, intracellular growth of M. avium was assessed by CFU assay.

Substance: 5′-TGACTGTGAACGTTCGAGATGA-3′ (SEQ ID NO:1) [ISS]
- decrease of intracellular growth of M. avium (M. avium [1]; established infection, infected hMDM treated with ISS 10 μg/ml for 7 days): 53%
- inhibition of intracellular growth of M. avium (M. avium [1]; hMDM (5×10^4/well) treated 3 days before infection, 7 days post-infection (FIG. 4A)): 91%
- inhibition of intracellular growth of M. avium (M. avium [1]; hMDM pretreated 72 h with 3 μg/ml ISS before infection, day 7, vs medium alone or M-ODN): 91.3±1.7%
- growth inhibition at the higher concentrations of ISS tested (M. avium [1]; hMDM pretreated with 10 or 30 μg/ml vs 3 μg/ml ISS): no further increase in growth inhibition
- inhibition of growth of M. avium (M. avium [1]; hMDM, ISS (10 µg/mL) immediately after infection (0 day), CFU at day 7, vs medium alone): 53±18%
- inhibition of growth of M. avium (M. avium [1]; hMDM, ISS (10 µg/mL) one day after infection (+1 day), CFU at day 7, vs medium alone): 36±16%
- inhibition of intracellular growth of M. avium (M. avium [1]; hMDM, ISS (10 µg/mL) pretreatment three days before infection (−3 days), CFU at day 7, vs medium alone): 51±4%
- inhibition of intracellular growth of M. avium (M. avium [1]; infected hMDM, ISS 10 μg/ml alone, day 7): 38±7%
- enhancement of the anti-mycobacterial effect of clarithromycin (M. avium [1]; infected hMDM, ISS 10 μg/ml with 1 μg/ml clarithromycin, day 7): 89±5%
- enhancement of the anti-mycobacterial effect of clarithromycin (M. avium [1]; infected hMDM, ISS 10 μg/ml with 4 μg/ml clarithromycin, day 7): 63±12%
- inhibition of intracellular growth of M. avium in mBMDM from knockout mice (M. avium [2]; NADPH oxidase−/−, iNOS−/−, TNF-α−/−, IL-12p40−/−, IFN-α/βR−/−, IFN-γR−/− mBMDM, ISS 3 days before infection): 60-85%
- % of CFU (M. avium [2]; mBMDM from IFN-αR−/− 129S6/SvEv, day 7): 10.9 ± 01.7^b %
- % of CFU (M. avium [2]; mBMDM from IFN-γR−/− 129S6/SvEv, day 7): 7.6 ± 01.3^b %
- % of CFU (M. avium [2]; mBMDM from IL-12 p40−/− C57B1/6, day 7): 26.4 ± 10.1^b %
- % of CFU (M. avium [2]; mBMDM from INOS−/− C57B1/6, day 7): 37.3 ± 4.6^b %
- % of CFU (M. avium [2]; mBMDM from NADPH oxidase−/− (gp91 phox−/−) C57B1/6, day 7): 11.4 ± 1.5^b %
- % of CFU (M. avium [2]; mBMDM from TNF-α−/− C57B1/6, day 7): 24.0 ± 6.0^b %
- % of CFU (M. avium [2]; mBMDM from Wild type 129S6/SvEV, day 7): 17.0 ± 4.0^b %
- % of CFU (M. avium [2]; mBMDM from Wild type C57B1/6, day 7): 18.2 ± 7.3^b %
- reduction of bacterial growth in mBMDM (M. avium [2]; mBMDM infected first, then treated, ISS 10 μg/ml, CLA 0.1 μg/ml, 7 days after infection, compared to medium alone): 68%
- inhibition of intracellular growth of M. avium in mBMDM (M. avium [2]; treated 72 hrs before infection, day 7): 80%
- decrease of intracellular growth of M. avium in mBMDM (M. avium [2]; treated for 7 days starting two hours after infection, vs M-ODN or medium alone): 68%

— patent US6552006B2, “Immunomodulatory polynucleotides in treatment of an infection by an intracellular pathogen” (The Regents of the University of California, priority 2000, dated 2003)
